Values belong to the compound of their own block, whether it stands above or below them.
Key:
[1] = Henry solubility constant Hcp at 298.15 K (mol/(m3 Pa))
[2] = Henry solubility constant Hcp at 303 K (mol/(m3 Pa))
[3] = Henry solubility constant Hcp at 296 K (mol/(m3 Pa))
[4] = Henry solubility constant Hcp at 293 K (mol/(m3 Pa))
[5] = Henry solubility constant Hcp at 310 K (mol/(m3 Pa))
[6] = reference: Meynier et al. (2003)
[7] = reference: Fendinger et al. (1989)
[8] = reference: Xu and Kropscott (2014)
[9] = reference: Miller and Stuart (2000)
[10] = reference: Arp and Schmidt (2004)
[11] = reference: Warner et al. (1980)
[12] = reference: Yurteri et al. (1987)
[13] = reference: Bissonette et al. (1990)
[14] = reference: Robbins et al. (1993)
[15] = reference: Turner et al. (1996)

Structure (SMILES): Clc1ccc(C(c2ccc(Cl)cc2)C(Cl)(Cl)Cl)cc1 [1,1,1-trichloro-2,2-bis-(4-chlorophenyl)-ethane]
- Henry solubility constant Hcp at 296 K [3, 7]: 0.77
- Henry solubility constant Hcp [1, 7]: 1.2

Structure (SMILES): CCCN(CCC)c1c([N+](=O)[O-])cc(C(F)(F)F)cc1[N+](=O)[O-] [trifluralin]
- Henry solubility constant Hcp at 293 K ([4]; reference: Rice et al. (1997b)): 0.095
- Henry solubility constant Hcp at 296 K [3, 7]: 0.19
- Henry solubility constant Hcp [1, 7]: 0.17

Structure (SMILES): ClC1=C(Cl)[C@]2(Cl)C3C(Cl)C(Cl)CC3[C@@]1(Cl)C2(Cl)Cl (stereo partly drawn) [chlordane]
- Henry solubility constant Hcp at 296 K [3, 7]: 0.18
- Henry solubility constant Hcp [1, 7]: 0.12
- Henry solubility constant Hcp [1, 11]: 0.21

Structure (SMILES): Cc1ccccc1C [1,2-dimethylbenzene]
- Henry solubility constant Hcp at 293 K [4, 12]: 0.0023
- Henry solubility constant Hcp at 296 K ([3]; reference: Anderson (1992)): 0.0017
- Henry solubility constant Hcp [1, 13]: 0.0021
- Henry solubility constant Hcp ([1]; reference: Li et al. (2008)): 0.0023
- Henry solubility constant Hcp [1, 14]: 0.002
- Henry solubility constant Hcp ([1]; reference: Sieg et al. (2009)): 0.002
- Henry solubility constant Hcp [1, 15]: 0.0014
- Henry solubility constant Hcp ([1]; reference: Wasik and Tsang (1970)): 0.0029
- Henry solubility constant Hcp at 310 K ([5]; reference: McIntosh and Heffron (2000)): 0.00096

Structure (SMILES): Cc1ccc(C)c(C)c1 [1,2,4-trimethylbenzene]
- Henry solubility constant Hcp at 293 K [4, 12]: 0.0021
- Henry solubility constant Hcp ([1]; reference: Li et al. (2008)): 0.0017
- Henry solubility constant Hcp at 310 K ([5]; reference: Järnberg and Johanson (1995)): 0.00062

Structure (SMILES): [N-]=[N+]=O [dinitrogen monoxide]
- Henry solubility constant Hcp at 296 K ([3]; reference: Nunn (1958)): 0.00022
- Henry solubility constant Hcp ([1]; reference: Carius (1855)): 0.00025
- Henry solubility constant Hcp ([1]; reference: Gabel and Schultz (1973)): 0.00025
- Henry solubility constant Hcp ([1]; reference: Geffcken (1904)): 0.00024
- Henry solubility constant Hcp ([1]; reference: Joosten and Danckwerts (1972)): 0.00024
- Henry solubility constant Hcp ([1]; reference: Kunerth (1922)): 0.00024
- Henry solubility constant Hcp ([1]; reference: Orcutt and Seevers (1937a)): 0.00024
- Henry solubility constant Hcp ([1]; reference: Roth (1897)): 0.00023
- Henry solubility constant Hcp ([1]; reference: Saidman et al. (1966)): 0.00024
- Henry solubility constant Hcp ([1]; reference: Siebeck (1909)): 0.00024
- Henry solubility constant Hcp ([1]; reference: Weiss and Price (1980)): 0.00024
- Henry solubility constant Hcp at 310 K ([5]; reference: Bachofen and Farhi (1971)): 0.00019
- Henry solubility constant Hcp at 310 K ([5]; reference: Sy and Hasbrouck (1964)): 0.00014

Structure (SMILES): CCOP(=S)(OCC)Oc1cc(C)nc(C(C)C)n1 [diazinon]
- Henry solubility constant Hcp at 296 K ([3]; reference: Fendinger and Glotfelty (1988)): 88
- Henry solubility constant Hcp at 296 K [3, 7]: 84
- Henry solubility constant Hcp ([1]; reference: Feigenbrugel et al. (2004a)): 15

Structure (SMILES): CCc1ccccc1 [ethylbenzene]
- Henry solubility constant Hcp at 296 K [3, 9]: 0.0016
- Henry solubility constant Hcp ([1]; reference: Allen et al. (1998)): 0.0013
- Henry solubility constant Hcp [1, 13]: 0.0011
- Henry solubility constant Hcp ([1]; reference: Brown and Wasik (1974)): 0.0013
- Henry solubility constant Hcp ([1]; reference: Ervin et al. (1980)): 0.0014
- Henry solubility constant Hcp ([1]; reference: Hartkopf and Karger (1973)): 0.0016
- Henry solubility constant Hcp ([1]; reference: Heidman et al. (1985)): 0.0013
- Henry solubility constant Hcp ([1]; reference: Li et al. (2008)): 0.0014
- Henry solubility constant Hcp ([1]; reference: Lodge and Danso (2007)): 0.0011
- Henry solubility constant Hcp ([1]; reference: Mackay et al. (1979)): 0.0012
- Henry solubility constant Hcp ([1]; reference: Perlinger et al. (1993)): 0.0013
- Henry solubility constant Hcp [1, 14]: 0.0013
- Henry solubility constant Hcp ([1]; reference: Sanemasa et al. (1981)): 0.0014
- Henry solubility constant Hcp ([1]; reference: Sieg et al. (2009)): 0.0013
- Henry solubility constant Hcp [1, 15]: 0.0011
- Henry solubility constant Hcp [1, 11]: 0.0015

More lines, now with the values ahead:

- Henry solubility constant Hcp ([1]; reference: Kieckbusch and King (1979b)): 0.028
- Henry solubility constant Hcp at 303 K [2, 6]: 0.13
Structure (SMILES): CCCCCOC(C)=O [pentyl ethanoate]

- Henry solubility constant Hcp at 296 K ([3]; reference: David et al. (2000)): 7.7e-07
- Henry solubility constant Hcp [1, 8]: 1.3e-06
Structure (SMILES): C[Si](C)(C)O[Si](C)(C)C [hexamethyldisiloxane]

- Henry solubility constant Hcp at 296 K [3, 9]: 0.0052
- Henry solubility constant Hcp [1, 10]: 0.0086
- Henry solubility constant Hcp ([1]; reference: Haimi et al. (2006)): 0.01
- Henry solubility constant Hcp ([1]; reference: Hwang et al. (2010)): 0.053
- Henry solubility constant Hcp ([1]; reference: Park et al. (1997)): 0.007
Structure (SMILES): CCC(C)(C)OC [2-methoxy-2-methylbutane]

- Henry solubility constant Hcp at 303 K [2, 6]: 0.14
Structure (SMILES): CCCCC(=O)OCC [ethyl pentanoate]

- Henry solubility constant Hcp at 296 K [3, 9]: 0.0042
- Henry solubility constant Hcp [1, 10]: 0.0061
- Henry solubility constant Hcp ([1]; reference: Haimi et al. (2006)): 0.0064
- Henry solubility constant Hcp ([1]; reference: Hwang et al. (2010)): 0.12
- Henry solubility constant Hcp ([1]; reference: Sieg et al. (2009)): 0.0063
Structure (SMILES): CCOC(C)(C)C [ethyl tert-butyl ether]

- Henry solubility constant Hcp at 303 K ([2]; reference: Iraci et al. (1999)): 0.64
Structure (SMILES): C=CC(C)(C)O [2-methyl-3-buten-2-ol]

- Henry solubility constant Hcp ([1]; reference: Hovorka et al. (2019)): 0.11
- Henry solubility constant Hcp ([1]; reference: Ji and Evans (2007)): 0.16
- Henry solubility constant Hcp at 303 K ([2]; reference: Saylor et al. (1938)): 9.7e-05
Structure (SMILES): CCC(=O)CC [3-pentanone]

- Henry solubility constant Hcp at 296 K ([3]; reference: David et al. (2000)): 7.4e-05
- Henry solubility constant Hcp ([1]; reference: Xu and Kropscott (2012)): 3e-07
- Henry solubility constant Hcp [1, 8]: 2.8e-07
Structure (SMILES): C[Si]1(C)O[Si](C)(C)O[Si](C)(C)O[Si](C)(C)O[Si](C)(C)O1 [decamethylcyclopentasiloxane]

- Henry solubility constant Hcp at 296 K ([3]; reference: Liu et al. (2015)): 0.068
- Henry solubility constant Hcp ([1]; reference: Buttery et al. (1965)): 0.058
- Henry solubility constant Hcp ([1]; reference: Ji and Evans (2007)): 0.071
Structure (SMILES): CCCCC=O [pentanal]

- Henry solubility constant Hcp ([1]; reference: Buttery et al. (1971)): 0.2
- Henry solubility constant Hcp at 303 K [2, 6]: 0.9
Structure (SMILES): CCC/C=C/C=O [(E)-2-hexenal]

- Henry solubility constant Hcp at 296 K [3, 9]: 0.0043
- Henry solubility constant Hcp [1, 10]: 0.0039
- Henry solubility constant Hcp ([1]; reference: Hwang et al. (2010)): 0.015
- Henry solubility constant Hcp ([1]; reference: Nielsen et al. (1994)): 0.0048
Structure (SMILES): CC(C)OC(C)C [diisopropyl ether]

— Sander's compilation of Henry's law constants
